{
  "source": "patent US20260068886A1",
  "about": "“COMPOSITIONS AND METHODS FOR TARGETED INHIBITION AND DEGRADATION OF PROTEINS IN AN INSECT CELL” (Oerth Bio LLC, priority 2022, published 2026)",
  "key": {"[1]": {"tested_on": "FKBP-GFP", "test": "sfVHL mediated FKBP degradation in Sf9 cells expressing FKBP-GFP-P2A-RFP (fluorescence microscopy)", "type": "cell-based", "description": "FIG. 2 presents graphs showing the FKBP-GFP to RFP signal ratio when treated with dTAG-V1 (dose curve) and Bortezomib (1 or 10 μM).\nFIG. 3 presents microscopy images showing the data plotted in the graphs of FIG. 2. The images are of dTAG-V1 treated Sf9 cells expressing FKBP-GFP-P2A-RFP observed in Brightfield, green fluorescent protein and red fluorescent protein excitation wavelengths.\nSf9 cells were seeded into individual wells of 6-well sterile tissue culture plates (2×10^6 cells per well) with 2 mL fresh Sf900 III serum-free medium prior to the assay. The Sf9 cells were transfected with a plasmid expressing FKBP-GFP-P2A-RFP. Plasmid construct (in TE buffer) was aliquoted into a sterile Eppendorf microcentrifuge tube, with fresh sSf900 III medium added to each Plasmid. Cellfectin II reagent (Life Technologies, Carlsbad, CA) was then added to the transfection mixture, and the tubes were inverted to mix and incubated at room temperature for 30 minutes. All media was removed from each well just prior to the addition of the transfection mixture. Complete transfection mixtures were added to cells dropwise using a P1000 pipette with sterile filter tips. Cells overlayed with transfection mixtures were incubated at 27° C. for 4 hours. Following 4 hours of incubation time, transfection mixtures were removed and replaced with 2 mL of fresh complete medium per well (Sf900 III). Cells were allowed to incubate at 27° C. for 96 hours to allow expression from the transfected plasmid. After construct expression, cells are harvested for further experiments. Cells were detached using a P1000 pipette with sterile filter tips. Cells were resuspended in fresh Sf900 III medium. Transfected Sf9 cells were seeded into individual wells of 96-well sterile tissue culture plates (1×10^6 cells per well) with 0.1 mL fresh Sf900 III serum-free medium. Cells were then supplemented with a 10× stock of the indicated compounds (dTAGV1, dTAG-V1-NEG, Bortezomib). Protein levels were finally analyzed using Carl Zeiss microscopy and FIJI image analysis."}, "[2]": {"tested_on": "MBP-FKBP-Hibit-His6 / sfVHL:sfElonginB/C+CUL2/RBX1", "test": "in vitro ubiquitination of MBP-FKBP-Hibit-His6 by sfVHL mediated by dTAGV-1 (Western blot, anti-His6)", "type": "biochemical", "conditions": "sfVHL:sfElonginB/C + human CUL2/RBX1, E1, E2, ATP, ubiquitin; range of concentrations; room temperature", "from_the_text": "Lanes 1-4 and 5-8 are replicates of dose dependent dTAGV-1 dependent ubiquitination of MBP-FKBP-HIbit by sfVHL in vitro. In vitro ubiquitination is sfVHL dependent. No ubiquitination of MBP-FKBP-Hibit is observed in the absence of sfVHL (Lanes 9-16).\nTo assess the ability of sfVHL to act as a CUL2 adaptor protein en route to ubiquitination, sfVHL was expressed and purified recombinantly from E. coli as a complex with sfElonginB and C. […] The intensity and number of resolved bands observed, each indicating a distinct ubiquitination pattern of MBP-FKBP-Hibit-His6, was dependent on the dTAGV-1 concentration in the preparation. […] Further, ubiquitination as indicated by the complex band pattern above the MBP-FKBP-Hibit-His6 protein, was only observed when sfVHL:sfElonginB/C+CUL2/RBX1 was present confirming that the observed ubiquitination is PROTAC and sfVHL:sfElonginB/D+CUL2/RBX1 complex dependent.\nTo assess the ability of sfVHL to act as a CUL2 adaptor protein en route to ubiquitination, sfVHL was expressed and purified recombinantly from E. coli as a complex with sfElonginB and C. […] Further, ubiquitination was only observed when sfVHL:sfElonginB/C+CUL2/RBX1 was present confirming that MBP-FKBP-Hibit-His6 ubiquitination is PROTAC and sfVHL:sfElonginB/D+CUL2/RBX1 complex dependent."}},
  "note": "“Also recorded” adds a separate entry of the source.",
  "data": [
    {"compound": "CC(C)C[C@H](NC(=O)[C@H](Cc1ccccc1)NC(=O)c1cnccn1)B(O)O", "note": "[bortezomib, Bortezomib]", "values": [
      {"measurement": "effect on dTAG-V1 dependent reduction of GFP signal", "setting": "[1]; added together with dTAG-V1 (1 or 10 μM)", "value": "prevents the dTAG-V1 dependent reduction of GFP signal"}
    ]},
    {"compound": "CC[C@H](C(=O)N1CCCC[C@H]1C(=O)O[C@H](CCc1ccc(OC)c(OC)c1)c1ccccc1OCC(=O)NCCCCCCC(=O)N[C@H](C(=O)N1C[C@@H](O)C[C@@H]1C(=O)N[C@@H](C)c1ccc(-c2scnc2C)cc1)C(C)(C)C)c1cc(OC)c(OC)c(OC)c1", "note": "[dTAG-V1-NEG]", "values": [
      {"measurement": "GFP fluorescence (FKBP-GFP)", "setting": "[1]; 24 hours of incubation", "value": "no decrease in green fluorescent protein is observed"}
    ]},
    {"compound": "CC[C@H](C(=O)N1CCCC[C@H]1C(=O)O[C@H](CCc1ccc(OC)c(OC)c1)c1ccccc1OCC(=O)NCCCCCCC(=O)N[C@H](C(=O)N1C[C@H](O)C[C@H]1C(=O)N[C@@H](C)c1ccc(-c2scnc2C)cc1)C(C)(C)C)c1cc(OC)c(OC)c(OC)c1", "note": "[dTAG-V1]", "values": [
      {"measurement": "GFP fluorescence (FKBP-GFP)", "setting": "[1]; 24 hours of incubation", "value": "significantly decreased"},
      {"measurement": "RFP signal", "setting": "[1]; 24 hours of incubation", "value": "remains unchanged"},
      {"measurement": "concentration of optimal decrease of GFP fluorescence", "setting": "[1]; 24 hours of incubation", "value": "~100", "unit": "nM"}
    ]},
    {"compound": "CC[C@H](C(=O)N1CCCC[C@H]1C(=O)O[C@H](CCc1ccc(OC)c(OC)c1)c1ccccc1OCC(=O)NCCCCCCC(=O)N[C@H](C(=O)N1C[C@H](O)C[C@H]1C(=O)N[C@@H](C)c1ccc(-c2scnc2C)cc1)C(C)(C)C)c1cc(OC)c(OC)c(OC)c1", "note": "[dTAGV-1]", "values": [
      {"measurement": "ubiquitination of MBP-FKBP-Hibit-His6", "setting": "[2]", "value": "PROTAC mediated mono- and poly-ubiquitination of the protein; also recorded: observed in the presence of dTAGV-1 in a dose dependent manner; also recorded: FKBP substrate is ubiquitinated in vitro"}
    ]}
  ]
}
